Source: patent US20100021427A1, “Use of Antiviral Peptides For Treatment of Infections Caused by Drug-Resistant HIV” (Tianjin FusoGen Pharmaceuticals, Inc., priority 2008, published 2010)

Tests used:
[1] = test system: POPC LUVs; experiment: Isothermal titration calorimetry (ITC), peptide-lipid binding; details: LUVs injected into peptide solution
Description: (§1) So, the POPC LUV liposome system was employing to investigate the binding activity of FS-01 to lipid membranes. Large unilamellar vesicles (LUVs) of 1-palmitoyl-2-oleoyl-sn-glycero-3-phosphocholine (POPC) liposome were prepared as previously described (Liu, S., et al. J.BIOL.CHEM. 2007; 282: 9612-9620). Briefly, 20 mg of POPC stock solution was dried under a stream of nitrogen and stored in vacuum overnight to completely remove trace amounts of organic solvent. The dried lipid film was suspended by vortexing in 2 mL PBS buffer. The resultant multilamellar vesicle suspension was freeze-thawed for 5 cycles and then successively extruded through two stacked polycarbonate filters (0.1 μm) 13 times using an Avanti miniextruder.
Solutions were degassed under vacuum prior to use. LUVs of POPC were injected into the chamber containing a peptide solution or buffer only (as a control). The heats generated in control experiments by injecting lipid vesicles into buffer without a peptide were subtracted from the heats produced in the corresponding peptide-lipid binding experiments. Data acquisition and analyses were performed using MicroCal's Origin software (Version 7.0).

[2] = test system: 92TH009 (clade E, R5); experiment: Primary HIV-1 isolate infection of PBMC, p24 ELISA; type: cell-based; details: p24 production, 7 days post infection; for IC50: read-out: IC50 (Mean ± SD); for IC90: read-out: IC90 (Mean ± SD)
Description: (§2) The inhibitory activity of FS-01 against primary HIV-1 isolates was determined as previously described in (Jiang, S., et al. ANTIMICROB. AGENTS CHEMOTHER. 2004; 48: 4349-4359. The peripheral blood mononuclear cells (PBMC) were isolated from the blood of healthy donors using a standard density gradient (Histopaque-1077, Sigma) centrifugation. The cells were plated in 75-cm plastic flasks and incubated at 37° C. for 2 h. The nonadherent cells were collected and resuspended at 5×10^5/mL in RPMI 1640 medium containing 10% FBS, 5 μg of phytohemagglutinin (PHA)/mL, and 100 U of interleukin-2/mL, followed by incubation at 37° C. for 3 days. The PHA-stimulated cells were infected with the corresponding primary HIV-1 isolates at a multiplicity of infection (MOI) of 0.01 in the absence or presence of FS-01 at graded concentrations. Culture media were changed every 3 days. The supernatants were collected 7 days post infection and tested for p24 antigen by ELISA. The percent inhibition of p24 production and IC50/IC90 values were calculated.

[3] = test system: 92US657 (clade B, R5); experiment: Primary HIV-1 isolate infection of PBMC, p24 ELISA; type: cell-based; details: p24 production, 7 days post infection; for IC50: read-out: IC50 (Mean ± SD); for IC90: read-out: IC90 (Mean ± SD)
Description: as §2

[4] = test system: 92UG001 (clade D, X4R5); experiment: Primary HIV-1 isolate infection of PBMC, p24 ELISA; type: cell-based; details: p24 production, 7 days post infection; for IC50: read-out: IC50 (Mean ± SD); for IC90: read-out: IC90 (Mean ± SD)
Description: as §2

[5] = test system: 93BR020 (clade F, X4R5); experiment: Primary HIV-1 isolate infection of PBMC, p24 ELISA; type: cell-based; details: p24 production, 7 days post infection; for IC50: read-out: IC50 (Mean ± SD); for IC90: read-out: IC90 (Mean ± SD)
Description: as §2

[6] = test system: 94UG103 (clade A, X4R5); experiment: Primary HIV-1 isolate infection of PBMC, p24 ELISA; type: cell-based; details: p24 production, 7 days post infection; for IC50: read-out: IC50 (Mean ± SD); for IC90: read-out: IC90 (Mean ± SD)
Description: as §2

[7] = test system: 93IN101 (clade C, R5); experiment: Primary HIV-1 isolate infection of PBMC, p24 ELISA; type: cell-based; details: p24 production, 7 days post infection; for IC50: read-out: IC50 (Mean ± SD); for IC90: read-out: IC90 (Mean ± SD)
Description: as §2

[8] = test system: HIV-1IIIB-mediated cell-cell fusion (H9/HIV-1IIIB-infected cells with MT-2 cells); experiment: Dye transfer assay of HIV-1 mediated cell-cell fusion; type: cell-based; details: for IC50: 37° C. for 2 h, read-out: IC50, inhibition of cell-cell fusion
Description: (§3) A dye transfer assay was used for detection of HIV-1 mediated cell-cell fusion as previously described in (Jiang, S., et al. Antimicrob.Agents Chemother. 2004; 48: 4349-4359. In brief, H9/HIV-1IIIB-infected cells were labeled with a fluorescent reagent, Calcein-AM (Molecular Probes, Inc., Eugene, OR) and then incubated with MT-2 cells (ratio =1:5) in 96-well plates at 37° C. for 2 h in the presence or absence of peptides. The fused and unfused calcein-labeled HIV-1-infected cells were counted under an inverted fluorescence microscope (Zeiss, Germany) with an eyepiece micrometer disc. The inhibition percent of cell-cell fusion and the IC50 values were calculated as described. […] The inhibitory activity of FS-01 on HIV-1-mediated infection was conducted too.

[9] = test system: NL4-3 (V38A/N42D); type: cell-based, HIV-1; details: T20-resistant (R) virus, MT-2 cells, p24, fourth day; read-out: IC50 (Mean ± SD)
Description: (§4) Two T20-sensitive and five T20-resistant strains with well defined genetic mutations conferring the resistance were used in this experiment (Rimsky, L. T., et al. J.VIROL. 1998; 72: 986-993). Briefly, 1×10^4 MT-2 cells were infected with HIV-1 isolates at 100 TCID50 (50% tissue culture infective dose) in 200 μl RPMI 1640 medium containing 10% FBS in the presence or absence of FS-01 at graded concentrations overnight. Then the culture supernatants were removed and fresh media without FS-01 were added. On the fourth day post-infection, 100 μl of culture supernatants were collected from each well, mixed with equal volumes of 5% Triton X-100 and assayed for p24 antigen by ELISA.

[10] = test system: NL4-3 (V38E/N42S); type: cell-based, HIV-1; details: T20-resistant (R) virus, MT-2 cells, p24, fourth day; read-out: IC50 (Mean ± SD)
Description: as §4

[11] = test system: NL4-3 (V38A/N42T); type: cell-based, HIV-1; details: T20-resistant (R) virus, MT-2 cells, p24, fourth day; read-out: IC50 (Mean ± SD)
Description: as §4

[12] = test system: NL4-3 (N42S); type: cell-based, HIV-1; details: T20-sensitive (S) virus, MT-2 cells, p24, fourth day; read-out: IC50 (Mean ± SD)
Description: as §4

[13] = test system: NL4-3 (V38A); type: cell-based, HIV-1; details: T20-resistant (R) virus, MT-2 cells, p24, fourth day; read-out: IC50 (Mean ± SD)
Description: as §4

[14] = test system: NL4-3 (parental); type: cell-based, HIV-1; details: T20-sensitive (S) virus, MT-2 cells, p24, fourth day; read-out: IC50 (Mean ± SD)
Description: as §4

[15] = test system: NL4-3 (N42T/N43K); type: cell-based, HIV-1; details: T20-resistant (R) virus, MT-2 cells, p24, fourth day; read-out: IC50 (Mean ± SD)
Description: as §4

[16] = target: T1, 6-HB between C34-biotin and N36 (Human immunodeficiency virus type 1 group M subtype B, UniProt P04578); experiment: ELISA (mAb NC-1) of inhibition of 6-helix bundle formation; type: biochemical, HIV
T1 construct: protease-resistant N- and C-peptides from gp41
T1 sequence (P04578 546-581): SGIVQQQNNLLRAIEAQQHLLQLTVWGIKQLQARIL
Description: A 96-well polystyrene plate (Costar, Corning Inc., Corning, N.Y.) was coated with a 6-HB-specific monoclonal antibody NC-1 IgG (4 μg/mL in 0.1 M Tris, pH 8.8). […] The mixture was then added to the NC-1-coated plate, followed by incubation at room temperature for 30 min and washing with a washing buffer (PBS containing 0.1 % Tween 20) three times. Then streptavidin-labeled horseradish peroxidase (Invitrogen) and the substrate 3,3′,5,5′-tetramethylbenzidine (Sigma) were added sequentially. Absorbance at 450 nm (A450) was measured using an ELISA reader (Ultra 384, Tecan, Research Triangle Park, N.C.). The percent inhibition by the peptides and the IC50 values were calculated as previously described (Jiang, S. B., et al J.EXP.MED. 1991; 174: 1557-1563).

[17] = target: T2, N36 (Human immunodeficiency virus type 1 group M subtype B, UniProt P04578); experiment: Circular dichroism (CD) spectroscopy and thermal denaturation of peptide/N36 mixtures; type: binding, HIV
T2 construct: protease-resistant N- and C-peptides from gp41
T2 sequence (P04578 546-581): as above
Description: Circular dichroism (CD) spectroscopy was performed following the method previously described in He, Y., et al. J.BIOL.CHEM. 2007; 282: 25631-25639. […] The final peptide concentration was 10 μM in 50 mM sodium phosphate and 150 mM NaCl, pH 7.2. The N-, C-peptides as well as FS-01 by itself was also tested. CD spectra of these individual peptides and peptide mixtures were acquired on Jasco spectropolarimeter (Model J-715, Jasco Inc., Japan) at room temperature using a 5.0-nm band with, 0.1-nm resolution, 0.1-cm path length, 4.0-s response time, and a 50-nm/min scanning speed. The spectra were corrected by subtraction of a blank corresponding to the solvent. The a-helical content was calculated from the CD signal by dividing the mean residue ellipticity at 222 nm by the value expected for 100% helix formation (−33,000 degrees cm^2 dmol^−1) according to existing literature (Shu, W., et al. BIOCHEMISTRY 2000; 39: 1634-1642; Chen, Y. H., et al. BIOCHEMISTRY 1974; 13: 3350-3359). Thermal denaturation was monitored at 222 nm by applying a thennal gradient of 2° C./min in the range of 4-98° C. To determine the reversibility, the peptide mixtures were then cooled to 4° C. and kept in the CD chamber at 4° C. for 30 min, followed by monitoring of thermal denaturation as described above. The melting curve was smoothened, and the midpoint of the thermal unfolding transition (Tm) values was calculated using Jasco software utilities.

[18] = target: T2, N36; experiment: Native polyacrylamide gel electrophoresis (N-PAGE), 6-HB formation; type: binding, HIV; details: 40 μM, 37° C. 30 min
Description: Native polyacrylamide gel electrophoresis (N-PAGE) was carried out to determine the 6-HB formation between the N- and C-peptides using the described previously (Liu, S., et al. PEPTIDES 2003, 24:1303-1313). […] The mixture was loaded onto a 10×1.0-cm precast 18% Tris-glycine gels (Invitrogen, Carlsbad, Calif.) at 25 μL/per well with an equal volume of Tris-glycine native sample buffer (Invitrogen). Gel electrophoresis was carried out with 125 V constant voltage at room temperature for 2 h. The gel was then stained with Coomassie blue and imaged with a FluorChem 8800 Imaging System (Alpha Innotech Corp., San Leandro, Calif.).

[19] = test system: POPC LUVs; experiment: Tryptophan fluorescence spectroscopy, peptide-lipid interaction; type: binding; details: peptide 10 μM, POPC LUVs 2 mM, excitation 295 nm
Description: as §1
Spectra were baseline-corrected by subtracting blank spectra of the corresponding solutions without peptide.

[20] = test system: HIV-1IIIB; experiment: HIV-1IIIB-mediated infection of MT-2 cells; type: cell-based
Description: as §3
as §4, with “On the fourth day post-infection, 100 μl of culture supernatants were collected from each well, mixed with equal volumes of 5% Triton X-100 and assayed for p24 antigen by ELISA.” left out

Row | Substance | binding constant to POPC LUVs [1] | IC50 [2] [nM] | IC90 [2] [nM] | IC50 [3] [nM] | IC90 [3] [nM] | IC50 [4] [nM] | IC90 [4] [nM] | IC50 [5] [nM] | IC90 [5] [nM] | IC50 [6] [nM] | IC90 [6] [nM] | IC50 [7] [nM] | IC90 [7] [nM] | IC50 [8] [nM] | IC50 [9] [nM] | IC50 [10] [nM] | IC50 [11] [nM] | IC50 [12] [nM] | IC50 [13] [nM] | IC50 [14] [nM] | further results
1 | enfuvirtide | about 5×10^4 M^−1 | 221 ± 58.3 | 724 ± 56.6 | 41.5 ± 8.76 | 177 ± 15.9 | 185 ± 23.3 | 501 ± 70.8 | 73.7 ± 8.57 | 204 ± 28 | 83.8 ± 12.1 | 151 ± 8.8 | 47.2 ± 4.73 | 130 ± 16.8 | 21.4 | > 2000 | > 2000 | > 2000 | 26.9 ± 13 | > 2000 | 22 ± 1.19 | IC50 [15]: > 2000 nM
2 | Ac-SWETWEREIENYTRQIYRILEESQEQQDRNERDLLE-NH2 [FS-01] | too weak to calculate the binding constant | 210 ± 9.91 | 619 ± 39 | 27.8 ± 8.66 | 212 ± 84 | 11.9 ± 3.01 | 35.7 ± 6.59 | 12.5 ± 6.76 | 71.6 ± 28.5 | 3.94 ± 1.29 | 7.43 ± 2.16 | 34.3 ± 3.21 | 90.6 ± 6.5 | 3.6 | 47.8 ± 4.7 | 43.5 ± 3.36 | 30.4 ± 4.36 | 2.68 ± 0.87 | 3.44 ± 0.23 | 12.6 ± 1.18 | IC50 [16]: 120 nM; higher melting temperature of FS-01/N36 complex compared to C34/N36 complex [17]: 10 °C; helical content in the presence of N36 ([17]; CD at 222 nm, equal molar with N36, 10 μM, pH 7.2): 93%; formation of α-helical complexes with N36 (CD minimum at 208 and 222 nm) ([17]; equal molar with N36, 10 μM): formation of secondary α-helical structure; melting temperature (Tm) of complex with N36 ([17]; thermal denaturation monitored at 222 nm): about 72 °C; 6-HB formation with N36 (up-shift of peptide band) [18]: able to form 6-HB with N36; fold more active than T20 in inhibiting membrane fusion [8]: about 6 fold; shift of tryptophan fluorescence spectra in POPC LUVs compared to PBS [19]: did not show remarkable fluorescence spectra shift; IC50 [15]: 37.8 ± 15.6 nM; inhibition of HIV-1IIIB-mediated infection of MT-2 cells, compared with T20 [20]: more potent
